Where “and” joins values, the source holds several entries; their conditions need not be identical. Equal values may be shown once.
Legend:
[1] = test system: radiation-induced mucositis; test: Radiation-induced mucositis model, inferior lip of mice (Parkins et al.): body weight, mucosal erythema and edema scores; details: for Erythema (score) / Oedema (score): individual mice and Mean
[2] = test system: Bone marrow progenitor cells; test: In vitro colony formation (CFU-GEMM, BFU-E, CFU-GM) of bone marrow progenitor cells from treated MDS patients, methylcellulose assays; type: cell-based, human; details: bone marrow progenitor cells from MDS patients after s.c. amifostine
Description: (§1) Blood pressure was monitored before treatment and after the first dose at 30 minute intervals for up to 90 minutes. […] At least three patients were treated with each dose. […] Hematologic responses to treatment were evaluated by measuring neutrophil count (ANC), platelet count, erythroid response including hemoglobin levels and reticulocyte count, and in vitro colony formation.
Bone marrow progenitor cells were recovered from the treated patients and assayed for their ability to form CFU-GEMM, BFU-E and CFU-GM colonies in standard methylcellulose assays.

[3] = test system: radiation-induced xerostomia
Description: In the phase II study all patients were undergoing radiation therapy for histologically confirmed squamous cell carcinoma of the head and neck region. Patients were allowed to enter the study following surgery with curative intent as soon as the wound has healed but no later than 12 weeks post operatively.
Blood pressure and pulse were obtained prior to subcutaneous administration and repeated 10 minutes following administration. An IV was available to treat hypotension if it occurred. Patients received full supportive care including antiemetics, antibiotics, transfusions of blood and blood products, and the like when needed. Prophylactic antiemetics were not administered. If patients experienced nausea and vomiting they were administered either prochlorperazine, 10 mg PO, 30 minutes prior to therapy, repeating every 4 to 6 hours following therapy as needed or ondansetron, 8 mg PO, 30 minutes prior to therapy, repeating every 4 hours following therapy as needed.
Radiation therapy was provided with linear accelerators with appropriate photon and electron boosting to the nodes or Cobalt 60. The appropriate photon energy was based on optimizing the radiation therapy dose distribution within the target volume and minimizing dose to normal tissue. Patients were reproducibly mobilized and radio-opaque markers were used to delineate the extent of nodal disease and, where possible, the primary tumor. All fields were treated once daily at 1.8-2.0 Gy per fraction, five days per week to a total dose of:
Xerostomia was graded in each subject according to the RTOG criteria.

MDS = test: Subcutaneous amifostine in MDS patients: hematologic responses and adverse effects; type: in vivo, human
Excerpt: All patients in the study had MDS and were diagnosed as having one of the following subtypes: refractory anemia, refractory anemia with ring sideroblasts, refractory anemia with excess blasts or refractory anemia with excess blasts in transformation. In addition, the patients had thrombocytopenia (platelets <100,000/μl), neutropenia (ANC or absolute neutrophil count<1500/μl) or a hemoglobin untransfused <10 g/dl and/or were transfusion-dependent as defined by requiring at least 4 units of RBC in the 10 weeks prior to entry.
as §1

[4] = human, in vivo
Description: All subjects were sequestered at the study site from the evening before the administration of the first dose of study drug until the final whole blood sample was obtained.
Blood samples (5 to 7 mL each) were collected either by venipuncture or indwelling venous catheter (IVC) heparin lock. If IVC was used, it was inserted in the arm opposite the infusion site. […] For either line, the first 3 to 5 cc of blood were discarded (void volume) prior to blood collection.
To prevent further oxidation of WR-1065, PCA/EDTA was added to the samples prior to centrifugation. Because PCA/EDTA ruptures the cellular content of the blood, the samples were centrifuged for a longer period of time to prevent contamination/metabolism of the active metabolite. Consequently, only the clear supernatant (serum) was used for analysis of WR-1065. In contrast, no PCA/EDTA was added to the blood samples designated for analysis of the parent drug; therefore, plasma samples were prepared for analysis of the parent drug.
WINNONLIN, the WINDOWS version of PCNONLIN, was used for the determination of pharmacokinetic parameters for each subject following each route of administration. Non-compartmental modelling of the data was performed.
AUCs were calculated using extrapolation according to a straightline from the last non-zero point.
The AUCs were then analyzed using an analysis of variance (ANOVA) model with route, period and subject as variables. Sequence was not included in the model as this variable was uniquely determined by route and period. The confidence interval on the ratio of the subcutaneous or oral route to the intravenous route was calculated using the mean square error from the entire ANOVA model.

[5] = test system: radiation-induced xerostomia; details: IV Amifostine + RT, cited from earlier work
mucositis = test: Rat RT model: mucosal radioprotection by IV or SC amifostine at various times before 15.3 Gy head and neck irradiation (mucositis score); type: in vivo; details: rats, 200 mg/kg (1200 mg/m^2), given up to 4 hours prior to radiation therapy (15.3 Gy)
Description: A rat RT model was used to examine the protective effects of amifostine following IV as well as subcutaneous (SC) administration, and to investigate the length of time between amifostine administration and RT. In these experiments, rats were given 200 mg/kg (1200 mg/m^2) of amifostine IV or SC, and their head and neck regions exposed to 15.3 Gy of gamma irradiation at various times following amifostine administration. For 10 days after treatment, the rats were weighed and the oral cavities of the rats were examined for signs of mucositis. Mucosal erythema and mucosal edema were scored according to 0-5 and 0-2 scales, respectively, with the scores added to indicate overall mucositis.

[6] = cited from earlier work
[7] = Phase I three-way crossover study: safety assessments / adverse events (NCI Common Toxicity Criteria)
Description: If hypotension occurred, the subject was to receive a rapid infusion of 500 mL normal saline and was to be kept supine or in the Trendelenburg position until blood pressure returned to baseline. During this time, blood pressure was monitored every 3 minutes.
All subjects who had received at least one dose of protocol therapy were considered evaluable for safety. […] Toxicity was based on National Cancer Institute (NCI) Common Toxicity Criteria.
Because this was a crossover study to be performed on three successive days, toxicities were assigned to the route of administration on the day the toxicity occurred. A full nonparametric crossover model (likelihood of ratio test) was used to assess toxicities which corrected for period and sequence effects. A PROC CATMOD of SAS@ was used for this analysis.

[8] = Amifostine (l.p.) at 200 mg/kg + Irradiation (16.5 Gy), day 6 after treatment, 200 mg/kg
[9] = Amifostine (l.p.) at 200 mg/kg + Irradiation (16.5 Gy), day 7 after treatment, 200 mg/kg
[10] = Amifostine (l.p.) at 200 mg/kg + Irradiation (16.5 Gy), day 13 after treatment, 200 mg/kg
[11] = Amifostine (l.p.) at 200 mg/kg + Irradiation (16.5 Gy), day 14 after treatment, 200 mg/kg
[12] = Amifostine (l.p.) at 400 mg/kg + Irradiation (16.5 Gy), day 13 after treatment, 400 mg/kg
[13] = Amifostine (l.p.) at 400 mg/kg + Irradiation (16.5 Gy), day 14 after treatment, 400 mg/kg
[14] = Amifostine (s.c.) at 200 mg/kg + Irradiation (16.5 Gy), day 9 after treatment, 200 mg/kg
[15] = Amifostine (s.c.) at 400 mg/kg + Irradiation (16.5 Gy), day 14 after treatment, 400 mg/kg
[16] = SC amifostine, head and neck cancer patients
[17] = MDS patients, s.c. 500 mg once/day, 17 evaluable
[18] = intravenous, cancer patients, plasma
[19] = Intravenous 200 mg/m^2, N = 12, table cells give subject numbers
[20] = Intravenous 200 mg/m^2, N = 12, table cells give subject numbers, listed as amifostine
[21] = Oral 500 mg, N = 12, table cells give subject numbers

NCCCNCCSP(=O)(O)O [Amifostine, S-2-(3-aminopropylamino)ethyl dihydrogen phosphorothioate]
Erythema (score) [1, 8]: 0.5 and 0
Oedema (score) [1, 8]: 1 and 0 and 0.5
Erythema (score) [1, 9]: 0.5 and 0
Oedema (score) [1, 9]: 1 and 0 and 0.5
Oedema (score) ([1]; Amifostine (l.p.) at 200 mg/kg + Irradiation (16.5 Gy), day 12 after treatment, 200 mg/kg): 2 and 1 and 0.5
Erythema (score) [1, 10]: 0.5 and 2 and 1
Oedema (score) [1, 10]: 0.5 and 2 and 1
Erythema (score) [1, 11]: 0.5 and 2 and 1 and 0
Oedema (score) [1, 11]: 0.5 and 2 and 1 and 0
Oedema (score) ([1]; Amifostine (l.p.) at 400 mg/kg + Irradiation (16.5 Gy), day 6 after treatment, 400 mg/kg): 0.5 and 0
Oedema (score) ([1]; Amifostine (l.p.) at 400 mg/kg + Irradiation (16.5 Gy), day 7 after treatment, 400 mg/kg): 0.5 and 0
Erythema (score) ([1]; Amifostine (l.p.) at 400 mg/kg + Irradiation (16.5 Gy), day 12 after treatment, 400 mg/kg): 3 and 1 and 2
Erythema (score) [1, 12]: 0 and 0.5
Oedema (score) [1, 12]: 0.5 and 0
Erythema (score) [1, 13]: 0 and 0.5
Oedema (score) [1, 13]: 0.5 and 0
Erythema (score) ([1]; Amifostine (s.c.) at 200 mg/kg + Irradiation (16.5 Gy), day 7 after treatment, 200 mg/kg): 0 and 0.5
Erythema (score) [1, 14]: 0.5 and 1 and 3
Oedema (score) [1, 14]: 0.5 and 1 and 2
Erythema (score) ([1]; Amifostine (s.c.) at 200 mg/kg + Irradiation (16.5 Gy), day 13 after treatment, 200 mg/kg): 1 and 0.5 and 2
Oedema (score) ([1]; Amifostine (s.c.) at 200 mg/kg + Irradiation (16.5 Gy), day 14 after treatment, 200 mg/kg): 0.5 and 1 and 0
Oedema (score) ([1]; Amifostine (s.c.) at 400 mg/kg + Irradiation (16.5 Gy), day 6 after treatment, 400 mg/kg): 1 and 0.5 and 0
Oedema (score) ([1]; Amifostine (s.c.) at 400 mg/kg + Irradiation (16.5 Gy), day 7 after treatment, 400 mg/kg): 0.5 and 0
Erythema (score) ([1]; Amifostine (s.c.) at 400 mg/kg + Irradiation (16.5 Gy), day 13 after treatment, 400 mg/kg): 1 and 0 and 0.5
Erythema (score) [1, 15]: 1 and 0 and 0.5
Oedema (score) [1, 15]: 1 and 0 and 0.5
mucosal edema scores as compared to saline plus irradiation ([1]; both injection methods (i.p., s.c.)): decreased
average erythema score as compared to saline plus irradiation ([1]; i.p and s.c. administration): decreased
reduction in body weight after irradiation ([1]; i.p. or s.c. injection of amifostine, irradiated mice): prevented
effect of increasing the dose from 200 mg/kg to 400 mg/kg ([1]; irradiated mice): minimal additional benefits
efficacy at the time points of maximal adverse effects (day 9 body weight, day 12 erythema and edema) ([1]; subcutaneous, 200 mg/kg): highest efficacy
formation of CFU-GEMM, BFU-E and CFU-GM colonies [2]: produced bone marrow colonies
rate of acute xerostomia with subcutaneous versus IV amifostine ([3]; SC amifostine + RT): comparable rate
Grade 3 hypotension [3, 16]: no reports
Grade 3 nausea/vomiting [3, 16]: no reports
Platelet response, patients with >50,000/μl: Responders (number) (MDS; 3 evaluable): 3
Platelet response, patients with >50,000/μl: Responders (percent) (MDS; 3 evaluable): 100%
BM Blasts ↑ (RAEB): patients (number; RAEB-t, AML) (MDS; 5 evaluable): 2 (RAEB-t, AML)
Platelet response, patients with <50,000/μl: Responders (number) (MDS; 6 evaluable): 0
Hemoglobin >1.5 g/dl ↑: Responders (number) (MDS; 7 evaluable): 1
Ring Sideroblast ↓: Responders (number) (MDS; 7 evaluable): 3
ANC response, patients with ANC < 1000: Responders (number) (MDS; 8 evaluable): 3
ANC response, patients with ANC < 1000: Responders (percent) (MDS; 8 evaluable): 38.5%
ANC response, patients with ANC > 1000: Responders (number) (MDS; 9 evaluable): 2
ANC response, patients with ANC > 1000: Responders (percent) (MDS; 9 evaluable): 22%
Platelets ≧ 50% ↑: Responders (number) (MDS; 9 evaluable): 3
Platelets ≧ 50% ↑: Responders (percent) (MDS; 9 evaluable): 33%
RBC Transfusion (≦50% ↓): Responders (number) (MDS; 13 evaluable): 0
Retic count ≧ 50% ↑: Responders (number) (MDS; 14 evaluable): 10
Retic count ≧ 50% ↑: Responders (percent) (MDS; 14 evaluable): 71%
ANC ≧ 50% ↑: Responders (number) (MDS; [17]): 5
ANC ≧ 50% ↑: Responders (percent) (MDS; [17]): 29%
fatigue (grade I/II): patients (MDS; MDS patients, s.c. amifostine): four patients
local reaction (grade III): patients (MDS; MDS patients, s.c. amifostine): one patient
metallic taste (grade I/II): patients (MDS; MDS patients, s.c. amifostine): one patient
nausea (grade I/II): patients (MDS; MDS patients, s.c. amifostine): one patient
rash (grade I/II): patients (MDS; MDS patients, s.c. amifostine): six patients
vomiting (grade I/II): patients (MDS; MDS patients, s.c. amifostine): one patient
time after administration at which concentration dropped below 10 μM, amifostine (parent drug plus active metabolite) ([4]; iv): 45 min
time after administration at which concentration dropped below 10 μM, amifostine (parent drug) ([4]; iv): approximately 30 minutes
time after administration at which concentration dropped below 1.0 μM, amifostine (parent drug plus active metabolite) ([4]; po): 10 to 13 min
time after administration at which concentration fell below 10 μM, amifostine (parent drug plus active metabolite) ([4]; sc): approximately 50 minutes
time after administration at which concentration fell below 10 μM, amifostine (parent drug) ([4]; sc): approximately 45 minutes
peak levels (maximum whole blood concentration) ([4]; male, iv): about 100 μM
AUC of Combined (parent drug and active metabolite), 500 mg Oral (PO) ([4]; male, po): 0 µM·min
maximum blood levels ([4]; male, sc): about 12 μM
time to maximum and sustained whole blood concentration ([4]; male, sc): 15 to 45 min
≧Grade 2 acute xerostomia Incidence, All patients ([5]; 200 mg/m^2 3 minute infusion 15 to 30 minutes before RT, N 148): 51%
≧Grade 2 acute xerostomia Incidence, Patients receiving ≧60 Gy RT ([5]; 200 mg/m^2): 51%
≧Grade 2 acute xerostomia, Median cumulative RT dose to onset ([5]; 200 mg/m^2): 60 Gy
≧Grade 2 acute xerostomia, Median time to onset ([5]; 200 mg/m^2): 45 days
radioprotection (mucositis) of SC versus IV administration (mucositis): comparable to IV administration
amifostine remaining in the plasma ([6]; 6 minutes after intravenous administration): Less than 10%
distribution half-life [6, 18]: less than 1 minute
elimination half-life [6, 18]: approximately 9 minutes
Headache: subjects who reported the adverse event [7, 19]: 1008
Hypotension: subjects who reported the adverse event [7, 19]: 1003
Lightheadedness: subjects who reported the adverse event [7, 19]: 1003
Somnolence: subjects who reported the adverse event [7, 19]: 1008
Vomiting: subjects who reported the adverse event [7, 19]: 1008
Hypotension: subjects who reported the adverse event [7, 20]: one subject
Nausea: subjects who reported the adverse event [7, 20]: five subjects
Vomiting: subjects who reported the adverse event [7, 20]: one subject
Hypotension: subjects who reported the adverse event [7, 21]: 1003
Lightheadedness: subjects who reported the adverse event [7, 21]: 1003
Hypotension: subjects who reported the adverse event ([7]; Oral 500 mg, N = 12, table cells give subject numbers, listed as amifostine): one subject
incidence of hypotension ([7]; Subcutaneous 500 mg, N = 12): no incidence
Nausea: subjects who reported the adverse event ([7]; Subcutaneous 500 mg, N = 12, table cells give subject numbers): 1002
Nausea: subjects who reported the adverse event ([7]; Subcutaneous 500 mg, N = 12, table cells give subject numbers, listed as amifostine): one subject
Grade 2 or higher laboratory toxicity (NCI Common Toxicity Criteria) ([7]; after last dose, 12 subjects): none of the subjects
serum creatinine value, Subject 1010 ([7]; after last dose, baseline 0.90 mg/dL, reference range 0.70 to 1.40 mg/dL): 0.60 mg/dL
changes in physical examination, weight and vital signs ([7]; after the last dose of amifostine): No remarkable changes
severity of adverse events ([7]; all three routes): mild in severity, transient
discontinuation due to adverse events ([7]; all three routes, 12 subjects): No subject discontinued
subjects who reported adverse events ([7]; intravenous amifostine, 12 subjects): Five subjects
subjects who reported adverse events ([7]; oral amifostine, 12 subjects): one subject
tolerability ([7]; regardless of route of administration): well tolerated
subjects who reported adverse events ([7]; subcutaneous amifostine, 12 subjects): one subject

Reference: patent US6573253B2, “Methods for the administration of amifostine and related compounds” (MedImmune Oncology Inc., priority 1997, dated 2003)
